pIC50: −log10 of the molar value.
System: 422866-222-R5-J1-PDC complex spheroids viability
Assay: Anticancer human tumor 422866-222-R5-J1-PDC patient-derived pancreatic adenocarcinoma cell line growth inhibition [RAS]
Details: for pIC50: curve of first compound; for viability, T/C: stronger effect = lower value
Outline: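 Multi-cell-type spheroids: tumor cells plus HUVEC endothelial cells and mesenchymal stem cells. RAS-pathway inhibitors were combined with targeted agents, each dosed in half-log steps down from clinical Cmax, or from 10 microM when Cmax was unknown.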

[1] = second compound 0.00316 µM, first compound 0.00316 µM
[2] = second compound 0.00316 µM, first compound 0.01 µM
[3] = second compound 0.00316 µM, first compound 0.0316 µM
[4] = second compound 0.00316 µM, first compound 0.1 µM
[5] = second compound 0.00316 µM, first compound 0.316 µM
[6] = second compound 0.00316 µM, first compound 1 µM
[7] = second compound 0.01 µM, first compound 0.00316 µM
[8] = second compound 0.01 µM, first compound 0.01 µM
[9] = second compound 0.01 µM, first compound 0.0316 µM
[10] = second compound 0.01 µM, first compound 0.1 µM
[11] = second compound 0.01 µM, first compound 0.316 µM
[12] = second compound 0.01 µM, first compound 1 µM
[13] = second compound 0.0316 µM, first compound 0.00316 µM
[14] = second compound 0.0316 µM, first compound 0.01 µM
[15] = second compound 0.0316 µM, first compound 0.0316 µM
[16] = second compound 0.0316 µM, first compound 0.1 µM
[17] = second compound 0.0316 µM, first compound 0.316 µM
[18] = second compound 0.0316 µM, first compound 1 µM
[19] = second compound 0.1 µM, first compound 0.00316 µM
[20] = second compound 0.1 µM, first compound 0.01 µM
[21] = second compound 0.1 µM, first compound 0.0316 µM
[22] = second compound 0.1 µM, first compound 0.1 µM
[23] = second compound 0.1 µM, first compound 0.316 µM
[24] = second compound 0.1 µM, first compound 1 µM
[25] = second compound 0.316 µM, first compound 0.00316 µM
[26] = second compound 0.316 µM, first compound 0.01 µM
[27] = second compound 0.316 µM, first compound 0.0316 µM
[28] = second compound 0.316 µM, first compound 0.1 µM
[29] = second compound 0.316 µM, first compound 0.316 µM
[30] = second compound 0.316 µM, first compound 1 µM
[31] = second compound 1 µM, first compound 0.00316 µM
[32] = second compound 1 µM, first compound 0.01 µM
[33] = second compound 1 µM, first compound 0.0316 µM
[34] = second compound 1 µM, first compound 0.1 µM
[35] = second compound 1 µM, first compound 0.316 µM
[36] = second compound 1 µM, first compound 1 µM
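Also: spheroids exposed to compounds for 7 days.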
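For viability, T/C in this document: 100% = DMSO vehicle control viability.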

Nc1ccn(C2OC(CO)C(O)C2(F)F)c(=O)n1 (stereo unspecified) + C=CC(=O)N1CCN(c2nc(OCC3CCCN3C)nc3c(F)c(-c4nc(N)cc(C)c4C(F)(F)F)c(Cl)cc23)C(C)C1
pIC50 (second compound 0.00316 µM): > 8.50
pIC50 (second compound 0.01 µM): > 8.50
pIC50 (second compound 0.0316 µM): > 8.50
pIC50 (second compound 0.1 µM): > 8.50
pIC50 (second compound 0.316 µM): > 8.50
pIC50 (second compound 1 µM): > 8.50
viability, T/C [1]: 25.5%
viability, T/C [2]: 26.6%
viability, T/C [3]: 21.8%
viability, T/C [4]: 18.7%
viability, T/C [5]: 14.8%
viability, T/C [6]: 14.9%
viability, T/C [7]: 26.6%
viability, T/C [8]: 22.7%
viability, T/C [9]: 21.7%
viability, T/C [10]: 15.7%
viability, T/C [11]: 15.3%
viability, T/C [12]: 17%
viability, T/C [13]: 27.5%
viability, T/C [14]: 19.9%
viability, T/C [15]: 19.3%
viability, T/C [16]: 16.9%
viability, T/C [17]: 15.9%
viability, T/C [18]: 14.1%
viability, T/C [19]: 21.9%
viability, T/C [20]: 21.6%
viability, T/C [21]: 18.6%
viability, T/C [22]: 16.4%
viability, T/C [23]: 14.8%
viability, T/C [24]: 14.6%
viability, T/C [25]: 24.8%
viability, T/C [26]: 20.4%
viability, T/C [27]: 20%
viability, T/C [28]: 18.1%
viability, T/C [29]: 16.7%
viability, T/C [30]: 17.4%
viability, T/C [31]: 22.9%
viability, T/C [32]: 19.7%
viability, T/C [33]: 19%
viability, T/C [34]: 14.2%
viability, T/C [35]: 18%
viability, T/C [36]: 17.4%

Cc1nc(N2CCC3(CC2)COC(C)C3N)c(CO)nc1Sc1ccnc(N)c1Cl (stereo unspecified) + C#Cc1c(F)ccc2cc(O)cc(-c3ncc4c(N5CC6CCC(C5)N6)nc(OCC56CCCN5CC(F)C6)nc4c3F)c12
pIC50 (second compound 0.0316 µM): 6.48
pIC50 (second compound 0.1 µM): 6.90
pIC50 (second compound 0.316 µM): 7.21
pIC50 (second compound 1 µM): > 7.50
pIC50 (second compound 3.16 µM): > 7.50
pIC50 (second compound 10 µM): > 7.50
viability, T/C [15]: 74.7%
viability, T/C [16]: 65.3%
viability, T/C [17]: 49.2%
viability, T/C [18]: 42.2%
viability, T/C (second compound 0.0316 µM, first compound 3.16 µM): 39.6%
viability, T/C (second compound 0.0316 µM, first compound 10 µM): 35.9%
viability, T/C [21]: 80.5%
viability, T/C [22]: 52.5%
viability, T/C [23]: 38.9%
viability, T/C [24]: 36.8%
viability, T/C (second compound 0.1 µM, first compound 3.16 µM): 34.8%
viability, T/C (second compound 0.1 µM, first compound 10 µM): 30.5%
viability, T/C [27]: 62.4%
viability, T/C [28]: 40.5%
viability, T/C [29]: 33.2%
viability, T/C [30]: 30.3%
viability, T/C (second compound 0.316 µM, first compound 3.16 µM): 29.9%
viability, T/C (second compound 0.316 µM, first compound 10 µM): 26.7%
viability, T/C [33]: 37.6%
viability, T/C [34]: 46.7%
viability, T/C [35]: 24.3%
viability, T/C [36]: 22%
viability, T/C (second compound 1 µM, first compound 3.16 µM): 24.5%
viability, T/C (second compound 1 µM, first compound 10 µM): 20.9%
viability, T/C (second compound 3.16 µM, first compound 0.0316 µM): 24.5%
viability, T/C (second compound 3.16 µM, first compound 0.1 µM): 23.1%
viability, T/C (second compound 3.16 µM, first compound 0.316 µM): 20.3%
viability, T/C (second compound 3.16 µM, first compound 1 µM): 16.5%
viability, T/C (second compound 3.16 µM, first compound 3.16 µM): 18%
viability, T/C (second compound 3.16 µM, first compound 10 µM): 18.3%
viability, T/C (second compound 10 µM, first compound 0.0316 µM): 16.5%
viability, T/C (second compound 10 µM, first compound 0.1 µM): 19.6%
viability, T/C (second compound 10 µM, first compound 0.316 µM): 18%
viability, T/C (second compound 10 µM, first compound 1 µM): 14.8%
viability, T/C (second compound 10 µM, first compound 3.16 µM): 15%
viability, T/C (second compound 10 µM, first compound 10 µM): 16.3%

CCN1CCN(Cc2ccc(Nc3ncc(F)c(-c4cc(F)c5nc(C)n(C(C)C)c5c4)n3)nc2)CC1 + C=CC(=O)N1CCN(c2nc(OCC3CCCN3C)nc3c(F)c(-c4nc(N)cc(C)c4C(F)(F)F)c(Cl)cc23)C(C)C1
pIC50 (second compound 0.00316 µM): > 8.50
pIC50 (second compound 0.01 µM): > 8.50
pIC50 (second compound 0.0316 µM): > 8.50
pIC50 (second compound 0.1 µM): > 8.50
pIC50 (second compound 0.316 µM): > 8.50
pIC50 (second compound 1 µM): > 8.50
viability, T/C [1]: 25.2%
viability, T/C [2]: 32.4%
viability, T/C [3]: 26.4%
viability, T/C [4]: 21%
viability, T/C [5]: 31.8%
viability, T/C [6]: 36.3%
viability, T/C [7]: 25.3%
viability, T/C [8]: 24.6%
viability, T/C [9]: 24.8%
viability, T/C [10]: 23.3%
viability, T/C [11]: 25.8%
viability, T/C [12]: 30.3%
viability, T/C [13]: 22.7%
viability, T/C [14]: 22.1%
viability, T/C [15]: 22.5%
viability, T/C [16]: 18.5%
viability, T/C [17]: 27.8%
viability, T/C [18]: 30.5%
viability, T/C [19]: 24.4%
viability, T/C [20]: 22.2%
viability, T/C [21]: 21%
viability, T/C [22]: 20.7%
viability, T/C [23]: 24.5%
viability, T/C [24]: 31%
viability, T/C [25]: 18.9%
viability, T/C [26]: 20.2%
viability, T/C [27]: 20.3%
viability, T/C [28]: 21.7%
viability, T/C [29]: 27.3%
viability, T/C [30]: 30.4%
viability, T/C [31]: 22.7%
viability, T/C [32]: 20.9%
viability, T/C [33]: 23.2%
viability, T/C [34]: 21.2%
viability, T/C [35]: 24.9%
viability, T/C [36]: 37.9%
